# According to patent publication US6914045B2, “Glycopeptide antibiotics” (Wyeth Holdings Corporation, priority 2001, dated 2005):
# Columns and labels:
# Enterococcus sp. = test: in vitro antibacterial evaluation, MIC by broth dilution; type: cell-based; conditions: broth dilution, 18 hours at 35° C.
# Outline: (§1)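 Test organisms, which included recent clinical isolates resistant to methicillin, penicillin and/or vancomycin, were inoculated at 5×10^5 CFU/mL into Muller-Hinton II […] containing antibiotic at 64-0.06 μg/mL. Minimum inhibitory concentrations were then read as the lowest level inhibiting growth.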
# Staphylococcus sp. = test: as above; type: cell-based; conditions: broth dilution, 18 hours at 35° C.
# Outline: as §1
# Streptococcus sp. = test: as above; type: cell-based; conditions: broth dilution, 18 hours at 35° C.
# Outline: as §1
# Escherichia coli = test: as above; type: cell-based; conditions: 18 hours at 35° C.
# [1] = system: Staphylococcus aureus-SMITH (GC 4543); test: acute lethal infection in mice; type: in vivo; conditions: acute lethal infection, female CD-1 mice, intraperitoneal challenge, intravenous 30 min. after infection, 7 day survival
# Outline: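 Protocol: bacteria suspended in trypticase soy broth or hog gastric mucin injected ip into female CD-1 mice at a level killing untreated controls in 24-48 hr; compound given iv in saline or 5% dextrose 30 min post-challenge; five mice per dose; ED50 derived from pooled 7 day survival of three runs.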
compound,measurement,setting,value
"CC(c1ccccc1)C1NC(=O)CNC(=O)C(CO)NC(=O)C(C(O)C2CNC(=N)N2C2OC(CO)C(O)C(O)C2O)NC(=O)C(C(O)C2CNC(=N)N2)NC(=O)C(Cc2ccc(OC3OC(CO)C(OC4OC(COCc5ccc(OCc6ccccc6)cc5)C(O)C(O)C4O)C(O)C3O)cc2)NC1=O (stereo not drawn) [Example 231, Cyclo[glycyl-β-methylphenylalanyl-O-[4-O-[6-O-[4-(phenylmethoxy)benzyl]hexopyranosyl]-hexopyranosyl]tyrosyl-3-(2-iminoimidazolidin-4-yl)seryl-3-(3-hexopyranosyl-2-iminoimidazolidin-4-yl)serylseryl]]",MIC Enterococcus avium (GC 4558),Enterococcus sp.,2 to 4 µg/mL
same,MIC Enterococcus faecalis (ATCC 29212),Enterococcus sp.,4 µg/mL
same,MIC Enterococcus faecalis (GC 2242),Enterococcus sp.,4 µg/mL
same,MIC Enterococcus faecalis (GC 2691),Enterococcus sp.,2 to 4 µg/mL
same,MIC Enterococcus faecalis (GC 3059),Enterococcus sp.,2 to 4 µg/mL
same,MIC Enterococcus faecalis (GC 4552),Enterococcus sp.,4 µg/mL
same,MIC Enterococcus faecalis (GC 4553),Enterococcus sp.,4 µg/mL
same,MIC Enterococcus faecalis (GC 4554),Enterococcus sp.,4 µg/mL
same,MIC Enterococcus faecalis (GC 6189),Enterococcus sp.,2 to 4 µg/mL
same,MIC Enterococcus faecium (GC 2243),Enterococcus sp.,4 µg/mL
same,MIC Enterococcus faecium (GC 4556),Enterococcus sp.,4 µg/mL
same,MIC Enterococcus faecium (GC 4557),Enterococcus sp.,1 to 2 µg/mL
same,MIC Enterococcus faecalis (ATCC 29212),"Enterococcus sp.; inoculum 5×10^5 CFU/mL, strain ATCC 29212",4 µg/mL
same,MIC Enterococcus faecalis (GC 2242),"Enterococcus sp.; inoculum 5×10^5 CFU/mL, strain GC 2242",4 µg/mL
same,MIC Enterococcus faecium (GC 2243),"Enterococcus sp.; inoculum 5×10^5 CFU/mL, strain GC 2243",4 µg/mL
same,MIC Enterococcus faecalis (GC 2691),"Enterococcus sp.; inoculum 5×10^5 CFU/mL, strain GC 2691",2 to 4 µg/mL
same,MIC Enterococcus faecalis (GC 3059),"Enterococcus sp.; inoculum 5×10^5 CFU/mL, strain GC 3059",2 to 4 µg/mL
same,MIC Enterococcus faecalis (GC 4552),"Enterococcus sp.; inoculum 5×10^5 CFU/mL, strain GC 4552",4 µg/mL
same,MIC Enterococcus faecalis (GC 4553),"Enterococcus sp.; inoculum 5×10^5 CFU/mL, strain GC 4553",4 µg/mL
same,MIC Enterococcus faecalis (GC 4554),"Enterococcus sp.; inoculum 5×10^5 CFU/mL, strain GC 4554",4 µg/mL
same,MIC Enterococcus faecium (GC 4556),"Enterococcus sp.; inoculum 5×10^5 CFU/mL, strain GC 4556",4 µg/mL
same,MIC Enterococcus faecium (GC 4557),"Enterococcus sp.; inoculum 5×10^5 CFU/mL, strain GC 4557",1 to 2 µg/mL
same,MIC Enterococcus avium (GC 4558),"Enterococcus sp.; inoculum 5×10^5 CFU/mL, strain GC 4558",2 to 4 µg/mL
same,MIC Enterococcus faecalis (GC 6189),"Enterococcus sp.; inoculum 5×10^5 CFU/mL, strain GC 6189",2 to 4 µg/mL
same,MIC Coagulase Negative Staphylococcus (GC 4547),Staphylococcus sp.,1 to 2 µg/mL
same,MIC Coagulase Negative Staphylococcus (GC 4548),Staphylococcus sp.,0.5 to 1 µg/mL
same,MIC Coagulase Negative Staphylococcus (GC 4549),Staphylococcus sp.,0.25 to 0.5 µg/mL
same,MIC Coagulase Negative Staphylococcus (GC 4551),Staphylococcus sp.,1 µg/mL
same,MIC Coagulase Negative Staphylococcus (GC 6257),Staphylococcus sp.,0.5 to 1 µg/mL
same,MIC Staphylococcus aureus (ATCC 29213),Staphylococcus sp.,1 to 4 µg/mL
same,MIC Staphylococcus aureus (GC 1131),Staphylococcus sp.,2 to 4 µg/mL
same,MIC Staphylococcus aureus (GC 3051),Staphylococcus sp.,1 to 2 µg/mL
same,MIC Staphylococcus aureus (GC 3053),Staphylococcus sp.,1 to 2 µg/mL
same,MIC Staphylococcus aureus (GC 4541),Staphylococcus sp.,1 to 4 µg/mL
same,MIC Staphylococcus aureus (GC 4542),Staphylococcus sp.,2 to 4 µg/mL
same,MIC Staphylococcus aureus (GC 4544),Staphylococcus sp.,2 to 4 µg/mL
same,MIC Staphylococcus aureus (GC 4545),Staphylococcus sp.,1 to 4 µg/mL
same,MIC Staphylococcus aureus-SMITH (GC 4543),Staphylococcus sp.,2 µg/mL
same,MIC Staphylococcus haemolyticus (GC 4546),Staphylococcus sp.,1 to 4 µg/mL
same,MIC Staphylococcus aureus (ATCC 29213),Staphylococcus sp.; strain ATCC 29213,1 to 4 µg/mL
same,MIC Staphylococcus aureus (GC 1131),Staphylococcus sp.; strain GC 1131,2 to 4 µg/mL
same,MIC Staphylococcus aureus (GC 3051),Staphylococcus sp.; strain GC 3051,1 to 2 µg/mL
same,MIC Staphylococcus aureus (GC 3053),Staphylococcus sp.; strain GC 3053,1 to 2 µg/mL
same,MIC Staphylococcus aureus (GC 4541),Staphylococcus sp.; strain GC 4541,1 to 4 µg/mL
same,MIC Staphylococcus aureus (GC 4542),Staphylococcus sp.; strain GC 4542,2 to 4 µg/mL
same,MIC Staphylococcus aureus-SMITH (GC 4543),Staphylococcus sp.; strain GC 4543,2 µg/mL
same,MIC Staphylococcus aureus (GC 4544),Staphylococcus sp.; strain GC 4544,2 to 4 µg/mL
same,MIC Staphylococcus aureus (GC 4545),Staphylococcus sp.; strain GC 4545,1 to 4 µg/mL
same,MIC Staphylococcus haemolyticus (GC 4546),Staphylococcus sp.; strain GC 4546,1 to 4 µg/mL
same,MIC Coagulase Negative Staphylococcus (GC 4547),Staphylococcus sp.; strain GC 4547,1 to 2 µg/mL
same,MIC Coagulase Negative Staphylococcus (GC 4548),Staphylococcus sp.; strain GC 4548,0.5 to 1 µg/mL
same,MIC Coagulase Negative Staphylococcus (GC 4549),Staphylococcus sp.; strain GC 4549,0.25 to 0.5 µg/mL
same,MIC Coagulase Negative Staphylococcus (GC 4551),Staphylococcus sp.; strain GC 4551,1 µg/mL
same,MIC Coagulase Negative Staphylococcus (GC 6257),Staphylococcus sp.; strain GC 6257,0.5 to 1 µg/mL
same,MIC Streptococcus agalactiae (GC 4564),Streptococcus sp.,<0.06 µg/mL
same,MIC Streptococcus pneumoniae (ATCC 6301),Streptococcus sp.,<0.06 µg/mL
same,MIC Streptococcus pneumoniae (GC 1894),Streptococcus sp.,<0.06 µg/mL
same,MIC Streptococcus pneumoniae (GC 4565),Streptococcus sp.,<0.06 µg/mL
same,MIC Streptococcus pyogenes (GC 4563),Streptococcus sp.,<0.06 µg/mL
same,MIC Streptococcus pneumoniae (ATCC 6301),"Streptococcus sp.; inoculum 5×10^5 CFU/mL, strain ATCC 6301",<0.06 µg/mL
same,MIC Streptococcus pneumoniae (GC 1894),"Streptococcus sp.; inoculum 5×10^5 CFU/mL, strain GC 1894",<0.06 µg/mL
same,MIC Streptococcus pyogenes (GC 4563),"Streptococcus sp.; inoculum 5×10^5 CFU/mL, strain GC 4563",<0.06 µg/mL
same,MIC Streptococcus agalactiae (GC 4564),"Streptococcus sp.; inoculum 5×10^5 CFU/mL, strain GC 4564",<0.06 µg/mL
same,MIC Streptococcus pneumoniae (GC 4565),"Streptococcus sp.; inoculum 5×10^5 CFU/mL, strain GC 4565",<0.06 µg/mL
same,MIC Escherichia coli (ATCC 25922),Escherichia coli,>128 µg/mL
same,MIC Escherichia coli (GC 4559),Escherichia coli,>128 µg/mL
same,MIC Escherichia coli (GC 4560),Escherichia coli,0.5 to 2 µg/mL
same,"median effective dose (ED50), Staphylococcus aureus-SMITH (GC 4543)",[1],0.25 mg/kg
